Entries after “also recorded” stand apart in the source; their conditions may differ.
How the values were obtained:
CT26.CL25 cancer cells [1] = experiment: In vivo cancer growth inhibition, tail vein injection of doxorubicin nanocage complex and comparators; parameters: species or system Balb/c wild-type mice; details: tail vein 1 mg/kg; for tumor tissues excised after 25 days of cancer cell injection: day 25
Method: (§1) The antitumor activities of the ferritin heavy chain nanocage prepared in Examples 1-1 to 1-5 and the doxorubicin nanocage complex prepared in Example 3 were examined. Particularly, Balb/c wild type mice were used as the experimental animals, and experiments on the above experimental animals were carried out according to the regulations of the KIST animal ethics committee.
In addition, the present inventors investigated the in vivo anticancer activity of the doxorubicin-encapsulated nanocage complex prepared in Example 3 above. Particularly, 1×10^6 cells of CT26.CL25 cancer cells were subcutaneously injected into the above Balb/c wild-type mice to induce cancer. On the 7th day after the injection of cancer cells, 1 mg/kg of each test substance (buffer only, doxorubicin-loaded FH-SIRPα HV nanocage, doxorubicin-loaded ferritin heavy chain nanocage, doxorubicin+recombinant SIRPα, doxorubicin only, FH-SIRPα HV nanocage, ferritin heavy chain nanocage or recombinant SIRPα) was injected first by the tail vein and further injected four times at interval of 3 days at the same dose. The animals were sacrificed for 25 days after the injection of cancer cells, and the tumor tissues were excised and an ex vivo image was taken (FIG. 7D). Further, the volume of the tumor tissue over time before the sacrifice of the experimental animals was recorded from 7 days after the injection of cancer cells at the interval of 3 days by calculating using the following formula after measuring length (L) and width (W) of tumor tissues using a caliper: Tumor tissue volume (V [mm^3])=(L [mm])×(W [mm])^2×0.5

[2] = tested on: secondary cancer transplanted to other site; experiment: Anticancer memory effect: secondary tumor rechallenge and survival; type: in vivo, mice; details: after 80 days of tumor rechallenge
Source text: The present inventors have hypothesized that the effect of FH-SIRPα nanocage according to an embodiment of the present invention is due to the recruiting of immune cells from the results of Experimental Example 3. Thus, the present inventors analyze growth of secondary cancer transplanted to other site and counted survival rate of the experimental animals after excising primary tumor tissues from the experimental animals.

[3] = tested on: HT29 human colon cancer cells; experiment: Flow cytometry of nanocage binding to HT29 cancer cells; type: cell-based; details: 20, 200, 400 or 600 nM
Method: In order to confirm the affinity of cancer cells for nanocages produced using various SIRP proteins prepared in Examples 1-2 to 1-5, respectively in addition to the nanocage prepared in Example 1-1, flow cytometry was performed. Particularly, HT29 human colon cancer cells were seeded into 2×10^5 cells/ml and the wild-type ferritin heavy chain nanocage as a control group, the FH-SIRPα HV nanocage prepared in Example 1-1, the FH-hSIRPα WT nanocage prepared in Example 1, the FH-SIRPγ WT nanocage prepared in Example 1-3 and the FH-SIRPγ V2 nanocage prepared in Example 1-5 were treated at the concentration of 20, 200, 400 or 600 nM, respectively, and the degree of cell binding was measured. Particularly, after treating anti-ferritin heavy chain primary antibody (Abcam, Cambridge, UK, 1:200) and an Alexafluor 488-conjugated donkey anti-rabbit secondary antibody (Jackson ImmunoResearch, Suffolk, UK, 1:400), the cells were sorted according to fluorescence intensity through flow cytometry analysis.

[4] = tested on: CT26.CL25 mouse colon cancer cells; experiment: Phagocytosis rate of CT26.CL25 cells by bone marrow-derived macrophages (counting phagocytized cells); type: cell-based; details: BMDMs cocultured with CT26.CL25 at 37° C. for 4 hours
Method: After the staining, phagocytosis rate of macrophages against cancer cells were determined by counting phagocytized cancer cells by the macrophages.

CT26.CL25 cancer cells [5] = experiment: In vivo cancer growth inhibition, intratumoral nanocages; parameters: species or system Balb/c wild-type mice; details: CT26.CL25 subcutaneous; intratumoral 28 mg/kg
Method: as §1
First, in order to measure the in vivo anticancer activity of the various ferritin heavy chain nanocages prepared in Examples 1-1 to 1-5, 1×10^6 cells of CT26.CL25 cancer cells expressing β-galactosidase were subcutaneously injected on the left side of Balb/c wild-type mice in order to induce cancer and then each experimental substance (buffer only, FH-mSIRPα WT, FH-SIRPα HV, FH-SIRPγ WT and FH-SIRPγ V2) was injected intratumorally at dose of 28 mg/kg) after 5 day of tumor inoculation, and the length (L) and the width (W) of the tumor tissues were measured using a caliper at intervals of 3 days (FIG. 7A), and then the volume of tumor tissue was calculated using the following formula: Tumor tissue volume (V [mm^3])=(L [mm])×(W [mm])^2×0.5

[6] = tested on: Raji, HT-29, 4T1, CT26 and CT26.CL25 cancer cells co-cultured with BMDMs; experiment: Phagocytosis of cancer cells by bone marrow-derived macrophages (FACS); type: cell-based, human, mouse; details: 400 nM; compared with control group
Source text: (§2) Particularly, the present inventors observed the phagocytic action of macrophages and dendritic cells against tumor cells through FACS analysis. First, 3×10^5 cells/ml of bone marrow-derived macrophages (BMDMs) pre-stained with CellTracker Green (Thermo Fisher Scientific, USA) and (a) 1.25×10^6 cells/ml of human Raji Burkitt lymphoma cells, (b) human HT-29 colorectal cancer cells, (c) mouse 4T1 breast cancer cells, (d) mouse CT26 colorectal cancer cells and (e) mouse CT26.CL25 colorectal cancer cells overexpressing β-galactosidase pre-stained with pHrodo Red SE, respectively were seeded in RPMI medium and buffer only (control), the ferritin-SIRPα fusion nanocage (FH-SIRPα HV) of the present invention, the wild-type ferritin heavy chain nanocage (wtFH) and the monomeric SIRPα (mSIRPα) were treated at the concentration of 400 nM, respectively. […] The phagocytosis rate was determined by the following formula. […]

[7] = tested on: Raji, HT-29, 4T1, CT26 and CT26.CL25 cancer cells co-cultured with BMDCs; experiment: Phagocytosis of cancer cells by bone marrow-derived dendritic cells (FACS); type: cell-based, human, mouse; details: 400 nM; compared with control group
Source text: as §2

Mouse CD47 = target: T1, Mouse CD47 (Mus musculus, UniProt Q61735); experiment: Surface plasmon resonance (SPR) analysis of affinities and kinetics of binding to mouse CD47
T1 sequence (Q61735 19-303): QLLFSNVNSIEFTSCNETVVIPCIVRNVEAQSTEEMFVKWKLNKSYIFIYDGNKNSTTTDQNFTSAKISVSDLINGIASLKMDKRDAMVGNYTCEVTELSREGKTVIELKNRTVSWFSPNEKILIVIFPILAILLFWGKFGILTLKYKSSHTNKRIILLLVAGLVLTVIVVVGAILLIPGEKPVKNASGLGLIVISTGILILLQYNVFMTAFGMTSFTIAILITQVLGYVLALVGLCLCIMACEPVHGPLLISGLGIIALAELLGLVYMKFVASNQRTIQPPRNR
Method: (§3) The present inventors performed fluorescence microscopy to confirm whether the FH-SIRPα HV nanocage prepared in Example 1 specifically binds to CD47 on the surface of cancer cells. Specifically, CT26 mouse colorectal cancer cell line and HT29 human colorectal cancer cell line were inoculated at a concentration of 3×10^4 cells/ml. Then, after treating 400 nM of FH-SIRPα HV nanocage prepared in Example 1-1 or same amount of wild-type ferritin heavy chain nanocage as control group, anti-ferritin primary antibody (Abcam, Cambridge, UK) and FITC-conjugated anti-mouse rabbit secondary antibody (Jackson ImmunoResearch, Suffolk, UK) were treated and then fluorescence microscopic images were obtained. […] The affinities and kinetics of FH-SIRP α HV nanocage binding human or mouse CD47 were analyzed by surface plasmon resonance (SPR) analysis and the results are shown in Table 1 below.

Human CD47 = Human CD47 (Homo sapiens, UniProt Q08722); experiment: Surface plasmon resonance (SPR) analysis of affinities and kinetics of binding to human CD47
Chain of Human CD47 (Q08722 19-323): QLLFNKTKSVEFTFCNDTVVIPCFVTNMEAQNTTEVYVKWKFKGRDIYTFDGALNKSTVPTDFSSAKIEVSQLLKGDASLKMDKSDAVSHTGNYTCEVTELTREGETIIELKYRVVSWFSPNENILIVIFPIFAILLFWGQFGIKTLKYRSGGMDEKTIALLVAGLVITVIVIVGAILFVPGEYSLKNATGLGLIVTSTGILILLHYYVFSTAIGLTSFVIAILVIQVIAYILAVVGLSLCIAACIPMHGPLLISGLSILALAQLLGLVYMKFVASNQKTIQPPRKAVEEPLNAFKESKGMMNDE
Method: as §3

[8] = five injections at interval of 3 days

| Compound | tumor tissues excised after 25 days of cancer cell injection (CT26.CL25 cancer cells [1]) | anticancer effect (growth of cancer cells) (CT26.CL25 cancer cells [1]; [8]) | survival rate [2] | degree of cell binding [3] | phagocytic activity against cancer cells [4] | antitumor activity (tumor growth) (CT26.CL25 cancer cells [5]) | phagocytosis of cancer cells by macrophages (BMDMs) [6] | phagocytosis of cancer cells by dendritic cells (BMDCs) [7] | volume of the tumor (CT26.CL25 cancer cells [1]; [8]) | Kd (Mouse CD47) | ka (Mouse CD47) | kd (Mouse CD47) | Kd (Human CD47) | ka (Human CD47) | kd (Human CD47) |
| --- | --- | --- | --- | --- | --- | --- | --- | --- | --- | --- | --- | --- | --- | --- | --- |
| COc1cccc2c1C(=O)c1c(O)c3c(c(O)c1C2=O)C[C@@](O)(C(=O)CO)C[C@@H]3O[C@H]1C[C@H](N)[C@H](O)[C@H](C)O1 [doxorubicin] | limited | insignificant; also recorded: not so significant | 50% |  |  |  |  |  |  |  |  |  |  |  |  |
| FH-hSIRPα WT nanocage: Ferritin heavy chain nanocage of fusion protein with human SIRPα wild-type protein (SEQ ID NO: 92) |  |  |  | binds to cancer cells in a concentration-dependent manner | exhibited phagocytic activity against cancer cells | somewhat lowered |  |  |  |  |  |  |  |  |  |
| mSIRPα: Monomeric (recombinant) SIRPα protein used as comparator | same tumor volume as the control group | not so significant | 50% |  |  |  | significantly increased | significantly increased | exceeded 1,000 mm^3 | 6.2 nM | 1.8e+06 M⁻¹ s⁻¹ | 0.011 s⁻¹ | 0.0054 nM | 7e+06 M⁻¹ s⁻¹ | 3.7e-05 s⁻¹ |
| wtFH: Wild-type ferritin heavy chain nanocage used as control [reference compound] |  |  |  | did not bind to cancer cells even when the concentration increased |  |  | very low | very low |  |  |  |  |  |  |  |

Reference: patent publication US10905774B2, “Nanocage and use thereof” (KOREA INSTITUTE OF SCIENCE AND TECHNOLOGY, priority 2016, dated 2021)
